What all share (format): cell-based
In assay [1] the test system is Acinetobacter baumannii (ATCC 19606). Description: Planktonic growth (OD600) in biofilm inhibition assay. The conditions noted are these: for inhibition of growth at 100 µM: Acinetobacter baumannii, ATCC19606, 24 h, A. baumannii ATCC 19606, * = no growth inhibition at 200 μM, read-out: % Growth Inhibition at 100 μM. The procedure:
Each well was inoculated with ˜7×10^6 colony forming units per milliliter (corresponding to an OD600 of 0.01 prepared directly from an overnight culture). A lid was placed on the 96-well plate which was wrapped in suran wrap, placed in a humidifying chamber and incubated under static conditions at 37° C. for 24 hours. Following incubation, the media and planktonic bacteria were then removed from 96-well plates and the wells were then washed with water. The bacterial biofilms within the microtiter wells were stained with 200 μL of an aqueous 0.1% crystal violet solution that was allowed to stand for 10-20 minutes. The crystal violet stain was then removed, the wells were rinsed with water and dried. The crystal violet stain that remained on the inside of the wells (i.e., stained bacterial biofilm) on the inside of the wells was solubilized by the addition of 200 μL ethanol and absorbance was read at OD540 using a spectrophotometer. […] Single data points for all compounds and DMSO controls were tested in two replicate rows in 96-well plates and corresponding absorbance readings were averaged for the quantification of planktonic growth and biofilm formation. Reported percent biofilm inhibition was determined by the comparison of compound treated wells (the average of the two replicate wells) versus vehicle control wells without compound following background subtraction (i.e., an empty, untreated well) and reported from 2 to 4 independent overnight cultures. DMSO was serially diluted at the same concentration as test compounds with a top concentration of 1% v/v.
The bromophenazines were also evaluated against the Gram-negative bacterium Acinetobacter baumannii in order to identify biofilm modulating small molecules against this emerging pathogen. Acinetobacter baumannii is notorious for its ability to persist as bacterial biofilms on hospital surfaces, giving rise to many multidrug-resistant nosocomial infections. Clinical isolates of A. baumannii have been identified that are resistant to every class of antibiotic clinically used. The bromophenazines were evaluated against Acinetobacter baumannii ATCC 19606 in biofilm inhibition assays. Bromophenazines were allowed to incubate in 96-well plates with Acinetobacter baumannii (˜7×10^6 CFUmL^−1 by adjusting an overnight culture to an OD600˜0.01) for 24 hours at 37° C. using Mueller-Hinton broth followed by spectrophometer readings of each plate to evaluate planktonic growth (OD600) and biofilm formation (OD540 after crystal violet stain of biofilms inside microtiter wells). […] This biofilm inhibition with activation of planktonic growth activity was dose-dependent with bromophenazine 17a (see FIG. 20).

Assay [2] concerns Staphylococcus aureus (ATCC 25923) biofilm. The experiment in a line: Biofilm inhibition, crystal violet staining. The conditions noted are these: for Phenotype: planktonic growth vs biofilm formation; for IC50: Staphylococcus aureus, ATCC25923; for MIC/IC50 Biofilm: ratio of MIC to IC50 of biofilm inhibition. Also on record: MIC/IC50 Biofilm: unit not given here. The procedure:
Biofilm Inhibition Protocol for S. aureus (ATCC 25923). A serial two-fold dilution of 2× bromophenazine small molecule concentration was made in 100 μL tryptic soy broth (TSB) medium with 0.5% glucose were delivered into 0.1% gelatin (Millipore) coated 96-well tissue culture plates. […] To each well, 100 μL of TSB with 0.5% glucose containing 2×10^6 CFU/mL Staphylococcus aureus cells, prepared from fresh culture (OD600 of 0.8), was added. The plates were incubated at 37° C. for 24 hours. The wells were gently rinsed by submerging the entire plates in a tub of cold, running tap water. The wells were then fixed with 200 μL methanol for 15 minutes. After the plates were air dried, the biofilms were stained with 100 μL of 1% crystal violet for 10 minutes. The plates were again rinsed with running water. After drying in air, quantitative assessment of biofilm formation was obtained by extracting the crystal violet associated with the remaining biofilm with 100 μL per well of the following bleaching solution (methanol:glacial acetic acid:water (v/v/v)=4:1:5). This bleaching solution dissolved the bound crystal violet and produced a violet-colored solution in each well. The intensity of coloration was determined by measuring the absorbance at 540 nm.

Assay [3] concerns Staphylococcus aureus (ATCC 25923) established biofilm. Description: Biofilm dispersion, crystal violet staining. The conditions noted are these: for EC50: Staphylococcus aureus, read-out: Biofilm Dispersion EC50. Here is the method:
Biofilm Dispersion Protocol for Staphylococcus aureus (ATCC 25923): A single colony grown on tryptic soy agar (TSA) solid medium is amplified in 2 milliliters of tryptic soy broth (TSB) medium with 0.5% glucose to an OD600=0.8-1.0. The bacterial suspension was then diluted to 1×10^6 CFU/mL in TSB with 0.5% glucose. Sterile 96-well flat-bottomed polystyrene plates (0.1% gelatin coated overnight) were then filled with 200 μL of this bacterial suspension. The plates were then covered and incubated for 24 hours at 37° C. Following this, the contents of the wells were discarded and washed with 200 μL PBS (one time). Then serial, two-fold dilutions of bromophenazine small molecules in 200 μL PBS were delivered into each well. The plates were then covered and incubated for another 24 hours at room temperature. After this incubation time, the plates were gently washed with water three times (wells were rinsed by submerging the entire plates in a tub of cold, running tap water). Remaining biofilms were then fixed with 200 μL of methanol for 15 minutes. The plates were emptied and left to air dry. Upon drying, 100 μL of 1% crystal violet was added to each well for 10 minutes, then washed three times with water and again air dried. For quantitative assessment of biofilm formation 100 μL per well of bleaching solution (methanol:glacial acetic acid:water (v/v/v)=4:1:5 with rotary shaking for 1 hour) was used. Remaining biofilm was measured using a spectrophotometer (absorbance readings at 540 nm).
Further microdilution MIC assays were carried out for 11, 21-26, and 4a-29a against Staphylococcus aureus (ATCC 25923) in Luria Broth media (at ˜10^5 CFUmL^−1) to establish the level of growth inhibition for each compound (see FIGS. 5-13). […] Differentiation of a “biofilm inhibitor” from an antibacterial agent was carried out according to the ratio of MIC/IC50 of biofilm inhibition (based on crystal violet staining dose-response). […] Following the biofilm inhibition screen, bromophenazines 12a, 14a, 18a and 20a were evaluated in three independent biofilm inhibition experiments against Staphylococcus aureus to obtain replicate data. […] In addition to inhibiting biofilm formation, small molecules that are able to disperse or clear preexisting bacterial biofilms would be highly valuable. Six of the bromophenazine analogues (11, 4a, 8a, 23a, 27a, 28a; see Table 2 and FIGS. 18-19) were evaluated in biofilm dispersion assays by allowing Staphylococcus aureus biofilms to establish in 96-well plates for 24 hours at 37° C. After this incubation time, the media and planktonic cells were removed followed by a wash of the 96-well plates with water. Phosphate buffered saline (PBS) was then added to the 96-well plate followed by the addition of bromophenazine compounds (with 2-fold serial dilutions of each compound tested). The resulting plates were then allowed to incubate at room temperature for 24 hours and stained with crystal violet to quantify biofilm dispersion.

[4] abbreviates: S. aureus ATCC 25923, single replicate screen, read-out: Biofilm Inhibition IC50.
Setting [5] is: ATCC25923, S. aureus ATCC 25923, 24 h in PBS at room temperature.
[6] abbreviates: S. aureus, three independent experiments, read-out: Biofilm inhibition IC50 (triplicate).

Read-outs that look alike come from different tables or passages of the source.

Turning to `CCC(=O)Oc1c(Br)cc(Br)c2nc3ccccc3nc12` [Compound 4a], in assay [1] (100 μM), the inhibition of growth at 100 µM is 82 ± 1%. Also, in assay [2] (S. aureus ATCC 25923), the Phenotype entry was “antibacterial” and the “MIC/IC50 Biofilm” value was determined as 1.7. In assay [2] (setting [4]), the IC50 is 920 nM. Moreover, in assay [3] (S. aureus ATCC 25923), the “Biofilm Dispersal Agent?” value is “Yes”. Moreover, the EC50 in assay [3] (setting [5]) amounted to 2600 nM.
Take `O=C(CCCC(=O)Oc1c(Br)cc(Br)c2nc3ccccc3nc12)Oc1c(Br)cc(Br)c2nc3ccccc3nc12` [Compound 5a]: the inhibition of growth at 100 µM in assay [1] (100 μM) was -1 ± 6%. Besides, in assay [2] (setting [4]), the IC50 is 12100 nM. Also, the “MIC/IC50 Biofilm” value in assay [2] (S. aureus ATCC 25923) is listed as over 8.3.
As to `O=C(OCCc1ccccc1)Oc1c(Br)cc(Br)c2nc3ccccc3nc12` [Compound 8a], the inhibition of growth at 100 µM in assay [1] (100 μM) is 76 ± 10%. In addition, in assay [2] (S. aureus ATCC 25923), the Phenotype result is recorded as “antibacterial” and the “MIC/IC50 Biofilm” value is reported as 2.1. For the same compound, the IC50 in assay [2] (setting [4]) is 760 nM. Further, the “Biofilm Dispersal Agent?” value in assay [3] (S. aureus ATCC 25923) was “No”. Moreover, in assay [3] (setting [5]), the EC50 is over 100000 nM.
As to `Oc1c(Br)cc(Br)c2nc3ccccc3nc12` [Compound 11, 2,4-Dibromophenazin-1-ol], the inhibition of growth at 100 µM in assay [1] (100 μM) is 86 ± 3%. In addition, in assay [2] (S. aureus ATCC 25923), the Phenotype entry is given as “antibacterial”. Also, the concentration for half-maximal inhibition (IC50) in assay [2] (setting [4]) was 410 nM. Besides, the “Biofilm Dispersal Agent?” value in assay [3] (S. aureus ATCC 25923) is recorded as “Yes”. Besides, the EC50 in assay [3] (ATCC25923, 24 h) worked out at 29300 nM.
For `O=C(Oc1c(Br)cc(Br)c2nc3ccccc3nc12)c1ccc(Br)cc1` [Compound 12a], the inhibition of growth at 100 µM in assay [1] (100 μM) stood at 3 ± 3%. The values for the IC50 in assay [2] (setting [4]) and in assay [2] (setting [6]) were 810 nM and 1130 nM, respectively.
The corresponding values for `O=C(Oc1c(Br)cc(Br)c2nc3ccccc3nc12)c1ccc(Cl)cc1` [Compound 14a] are 2 ± 3%, 640 nM and 770 nM.
On to `O=C(Oc1c(Br)cc(Br)c2nc3ccccc3nc12)c1cccc([N+](=O)[O-])c1` [Compound 15a], for which the inhibition of growth at 100 µM in assay [1] (100 μM) was 3 ± 4%. For the same compound, in assay [2] (S. aureus ATCC 25923), the Phenotype entry is on record as “antibacterial” and the “MIC/IC50 Biofilm” value is 4.3. Also, in assay [2] (setting [4]), the IC50 was determined as 360 nM.
In the case of `Cc1ccc(C(=O)Oc2c(Br)cc(Br)c3nc4ccccc4nc23)cc1` [Compound 18a], the inhibition of growth at 100 µM in assay [1] (100 μM) is -6 ± 6%. The IC50 in assay [2] (setting [4]) came to 450 nM; in assay [2] (setting [6]), 550 nM.
For the compound `CC(=O)Oc1c(Br)cc(Br)c2nc3ccccc3nc12` [Compound 21, 2,4-Dibromophenazin-1-yl acetate], the inhibition of growth at 100 µM in assay [1] (100 μM) was 83 ± 2%. Moreover, in assay [2] (S. aureus ATCC 25923), the Phenotype result is recorded as “antibacterial” and the “MIC/IC50 Biofilm” value is recorded as 2.8. Besides, the IC50 in assay [2] (setting [4]) came to 420 nM.
For `O=C(Oc1c(Br)cc(Br)c2nc3ccccc3nc12)c1ccccc1` [Compound 23, 2,4-Dibromophenazin-1-yl benzoate], in assay [1] (100 μM, OD600), the “increase in planktonic growth” value was about 15%. In addition, the “planktonic growth inhibition at 200 μM” value in assay [1] (200 μM) is on record as “did not inhibit planktonic growth”. In addition, the inhibition of growth at 100 µM in assay [1] (100 μM) is -13 ± 7%. In addition, in assay [2] (S. aureus ATCC 25923), the Phenotype entry is reported as “antibacterial” and the “MIC/IC50 Biofilm” value turned out to be 0.9. Further, the IC50 in assay [2] (setting [4]) was found to be 1710 nM.
Consider `O=C(Oc1c(Br)cc(Br)c2nc3ccccc3nc12)c1ccco1` [Compound 23a], for which the inhibition of growth at 100 µM in assay [1] (100 μM) came to 80 ± 1%. Further, the Phenotype entry in assay [2] (S. aureus ATCC 25923) is “antibacterial”. The IC50 in assay [2] (setting [4]) amounted to 760 nM. Besides, the “Biofilm Dispersal Agent?” value in assay [3] (S. aureus ATCC 25923) is on record as “Yes”. The EC50 in assay [3] (setting [5]) turned out to be 1400 nM.
Consider `O=C(OCC(Cl)(Cl)Cl)Oc1c(Br)cc(Br)c2nc3ccccc3nc12` [Compound 27a], for which the inhibition of growth at 100 µM in assay [1] (100 μM) turned out to be 68 ± 4%. In assay [2] (S. aureus ATCC 25923), the Phenotype result is recorded as “antibacterial” and the “MIC/IC50 Biofilm” value is 1.0. Also, the IC50 in assay [2] (setting [4]) turned out to be 760 nM. The “Biofilm Dispersal Agent?” value in assay [3] (S. aureus ATCC 25923) was “No”. For the same compound, the EC50 in assay [3] (setting [5]) is over 100000 nM.
On to `COC(=O)Oc1c(Br)cc(Br)c2nc3ccccc3nc12` [Compound 28a], for which the inhibition of growth at 100 µM in assay [1] (100 μM) stood at 92 ± 1%. Moreover, in assay [2] (S. aureus ATCC 25923), the Phenotype entry is on record as “antibacterial” and the “MIC/IC50 Biofilm” value is listed as 2.0. In addition, the IC50 in assay [2] (setting [4]) came out at 770 nM. Also, the “Biofilm Dispersal Agent?” value in assay [3] (S. aureus ATCC 25923) is reported as “Yes”. In assay [3] (setting [5]), the EC50 worked out at 2900 nM.

A word on the IC50: it is the concentration that gives 50% inhibition. By EC50 is commonly meant the midpoint of the concentration-response curve.

The values above are taken from US9856225B2, “Substituted phenazines as antimicrobial agents” (University of Florida Research Foundation, Incorporated, priority 2013, dated 2018).
